Experimental data published in US20250270159A1, “1-(CYCLOBUTANEMETHYLIDENE)-2, 4, 5-TRIMETHOXYBENZENE COMPOUND AND PREPARATION METHOD AND USE THEREOF” (CHENGDU XINRUI TAIKANG TECHNOLOGY CO., LTD., priority 2023, published 2025).

Key:
[1] = system: ischemic stroke induced by the filament technique in rats; assay: Long-term ischemic stroke (MCAO), neurological deficit score (mNSS); format: in vivo
Procedure: (§1) The rats were randomly divided into a sham operation group (Sham group, given a blank emulsion with a volume equal to that of the high-dose CTMB group), a model group (Vehicle group, given a blank emulsion with a volume equal to that of the high-dose CTMB group), a low-dose CTMB group (CTMB-L group, 10 mg/kg), a high-dose CTMB group (CTMB-H group, 20 mg/kg), and an edaravone dexborneol injection concentrated solution group (EDB group, commercially available, 3 mg/kg). 10 rats were included in each group, which were administered by intraperitoneal injection. It should be noted that in the experiment, the mode of administration for rats was intraperitoneal injection, and a ratio of the effective dose of CTMB, the active ingredient in the emulsion injection, to the unit mass of the human body was within a range of 0.2 mg-4.0 mg/kg, which referred to the ratio of the effective dose of CTMB, the active ingredient in the emulsion injection, to the unit mass of the human body during intravenous infusion, which was extrapolated from the effective dose of the rats. Considering the different bioavailability, peak concentration, and peak time of the drug due to different species and different modes of administration, the effective dose of the active ingredient CTMB in the emulsion injection to the unit mass of human body was finally determined to be 0.2 mg-4.0 mg/kg through conversion.
(§2) The rats were fasted for 12 h before procedure, and the rats were anesthetized with 10% chloral hydrate (350 mg/kg, i.p.). The rats were fixed in the supine position, and the body temperature was maintained at about 37° C. For neck preparation, a median neck incision was made, the muscle and fascia were separated along the inner edge of the sternocleidomastoid muscle to expose the right side, the common carotid artery (CCA), external carotid artery (ECA), and internal carotid artery (ICA) were separated bluntly, and the lines were disposed of proximally in the CCA proximal end, ICA, and ECA for backup. The CCA proximal end and ECA were ligatured, and an arterial clip was used to temporarily close the ICA, then a small hole was poked at a position of CCA having about 4 mm from the bifurcation with a needle. The filament was inserted into the ICA through the CCA, the arterial clipped on ICA was loosened, and the filament was slowly advanced. When the mark on the filament reached the bifurcation and a slight resistance was felt, the thin wire at ICA was tightened, and saline was used to clean the wound and then suture was performed. The sham procedure was the same as the experimental group except that no filament was inserted. After anesthesia, the rats were raised normally.
Experimental materials, groups (n=10-15), modeling manner, and scoring criteria were the same as the acute phase of treatment. After 2 h of modeling by the filament technique, the drugs were immediately administered according to the grouped administration plan, and thereafter the drugs continued to be administered once a day for 14 days, and modified mNSS score was performed on days 1, 4, 7, and 14.

[2] = system: ischemic stroke induced by the filament technique in rats; assay: Acute phase of ischemic stroke induced by the filament technique (MCAO), short-term neurological deficit score; format: in vivo; settings: for mNSS score / Garcia score: 24 h after MCAO modeling; for mNSS score: scale 0-18, higher worse; for Garcia score: scale 3-18, lower worse
Procedure: Zea Longa score was used to determine whether the modeling was successful after 2 h of MCAO surgery, and rats with successful modeling were taken and randomly grouped for administering drugs.
as §1
as §2, with “After anesthesia, the rats were raised normally.” left out
Referring to the Zea Longa Neurologic Function Score (Longa EZ, Weinstein PR, Carlson S, Cummins R. Reversible middle cerebral artery occlusion without craniectomy in rats. Stroke. 1989 January; 20(1):84-91. doi: 10.1161/01.str.20.1.84.), rats were scored after 2 h of procedure when they were awake from anesthesia. […]
The neural function of the rats was comprehensively evaluated after 24 h of modeling using the modified mNSS score and Garcia score, and mNSS scoring criteria was shown in Table 3 and Garcia scoring criteria was shown in Table 4. The rats were evaluated for locomotion, sensation, and climbing, and symmetry of limbs. […]

TNF-α = TNF-α in cerebral cortex of TBI rats; format: in vivo, SD rats; settings: 30 mg/kg ip 2 h after TBI; 24 h after administration; FIG. 3
Procedure: The experimental grouping and drug administration plan were as follows. • Sham operation group (Group P): saline was given with the same volume as in the CTMB group; • Model group (T group): a blank emulsion was given with the same volume as in the CTMB group; • Medium dose group (Group M): a dose of 30 mg/kg of CTMB emulsion injection was given.
The experimental grouping and drug administration plan were the same as the test 3. After 2 h of the TBI modeling, different groups of rats were administered intraperitoneally. After 24 h of the administration, the rats were deeply anesthetized, the head was severed and the brain was removed, about 60-120 mg of hemisphere cortex was taken out from the hemisphere on the blood side, 10 times the volume of ice-cold centrifugal buffer used for biochemical assays was added, homogenization was carried out in an ice bath for 10 min, and centrifugation was carried out at 4° C. and 14000 rpm/min for 30 min. The supernatant was extracted, and inflammatory factors IL-1, IL-6, and TNF-α were tested according to the instructions of IL-1, IL-6, and TNF-α assay kits, respectively.

Malondialdehyde (MDA) = assay: MDA content in striatum of PD mice; format: in vivo, C57 mice; settings: Group D, CTMB 20 mg/kg ip, after 4 weeks, injured side
Procedure: The mice were randomly divided into a sham operation group (group S, given a blank emulsion with a volume equal to that of the administered group), a model group (group M, given a blank emulsion with a volume equal to that of the administered group), a CTMB group (20 mg/kg, group D), and a levodopa group (levodopa: benserazide hydrochloride=4:1, 12 mg/kg, group L), each group included 10-12 mice, and all of them were administered intraperitoneally.
Malondialdehyde (MDA) is a commonly used indicator of membrane lipid peroxidation, reduced glutathione (GSH) is one of the most commonly used non-enzymatic indicators of antioxidant substances, and superoxide dismutase (SOD) is a common indicator of antioxidant enzymes. After completing the evaluation of motor function after 4 weeks of drug administration, the mice were deeply anesthetized and perfused with 20 mL of saline via the heart. The brain was rapidly severed to isolate the striatal region on the injured side (right side), weighed, and placed into a 1.5 mL EP tube, and homogenized at low temperature by adding phosphate-buffered saline (PBS) at the ratio of a weight of animal tissues (g) to a volume of homogenization medium (mL) of 1:9. […]

[3] = CTMB-H 20 mg/kg ip once a day for 14 days
[4] = CTMB-L 10 mg/kg ip once a day for 14 days

COc1cc(OC)c(OC)cc1C=C1CCC1 [CTMB, 1-(cyclobutylidenemethyl)-2,4,5-trimethoxybenzene]
toxic side effects associated with administration ([1]; 10 and 20 mg/kg ip once a day for 14 days): No toxic side effects | mNSS score, Day 1 [1, 3]: 5.69 ± 2.13^##, ** | mNSS score, Day 4 [1, 3]: 3.75 ± 1.67^##, ** | mNSS score, Day 7 [1, 3]: 2.83 ± 1.17^##, * | mNSS score, Day 14 [1, 3]: 2.45 ± 1.36^##, * | mNSS score, Day 1 [1, 4]: 6.45 ± 2.37^##, * | mNSS score, Day 4 [1, 4]: 3.65 ± 1.29^##, ** | mNSS score, Day 7 [1, 4]: 3.38 ± 0.83 | mNSS score, Day 14 [1, 4]: 2.94 ± 1.56 | toxic side effects associated with administration ([2]; 10 and 20 mg/kg ip, MCAO rats, acute phase test): No toxic side effects | mNSS score ([2]; CTMB-H 20 mg/kg ip): 6.65 ± 2.30^##, ** | Garcia score ([2]; CTMB-H 20 mg/kg ip): 10.05 ± 1.81^##, ** | mNSS score ([2]; CTMB-L 10 mg/kg ip): 6.88 ± 2.26^##, ** | Garcia score ([2]; CTMB-L 10 mg/kg ip): 9.65 ± 1.02^##, * | content of TNF-α in cerebral cortex tissue (TNF-α): significantly reduced | MDA (Malondialdehyde (MDA)): 2.04 ± 0.57 μmol/g protein
